In patent US20010007907A1, “3-EPI COMPOUNDS OF VITAMIN D3 AND USES THEREOF” (WOMEN AND INFANTS HOSPITAL, priority 1997, published 2001):
Read-outs that look alike come from different tables or passages of the source.

Legend:
bovine parathyroid cells [1] = assay: Inhibition of PTH secretion in bovine parathyroid cells; type: cell-based; conditions: result in words
Description: To determine the effect of 3-epi vitamin D3 compounds on parathyroid hormone secretion, bovine parathyroid cells were prepared as described in the metabolism studies. These cells were grown for four days in serum-free media. […] Steady state PTH seretion was determined by washing the cells 3 times with Dulbecco's PBS and then placing them in serum free media for 3 hours. The media was collected, centrifuged at 4° C. and analyzed from PTH using CH9 antibody as described previously (Brown A. J. et al. (1992) Endocrinology 130:276-281). The cell monolayers were dissolved in 0.1 N NaOH and assayed for protein by method of Bradford using a kit from Biorad Laboratories. PTH secretion is expressed as picograms PTH per milligram cell protein (FIG. 20, panel B).

[2] = target: T1, plasma vitamin D binding protein (DBP) (Homo sapiens, UniProt P02774); assay: Competitive ligand binding to plasma vitamin D binding protein (RCI); conditions: fold over 1α,25(OH)2D3
T1 sequence (P02774 17-474): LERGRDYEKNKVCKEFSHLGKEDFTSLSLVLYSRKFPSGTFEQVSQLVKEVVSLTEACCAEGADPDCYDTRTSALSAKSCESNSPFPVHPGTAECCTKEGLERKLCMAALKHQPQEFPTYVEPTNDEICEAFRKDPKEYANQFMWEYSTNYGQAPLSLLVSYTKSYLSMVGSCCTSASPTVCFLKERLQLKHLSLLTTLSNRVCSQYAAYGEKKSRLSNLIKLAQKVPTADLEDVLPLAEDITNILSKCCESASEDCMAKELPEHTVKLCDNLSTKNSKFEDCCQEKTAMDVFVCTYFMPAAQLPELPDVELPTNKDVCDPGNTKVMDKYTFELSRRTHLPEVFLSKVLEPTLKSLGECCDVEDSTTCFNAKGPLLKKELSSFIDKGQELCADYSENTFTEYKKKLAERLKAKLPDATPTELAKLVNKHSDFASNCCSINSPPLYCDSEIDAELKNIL
Source text: The elevated levels of 3-epi binding indicate that 3-epi forms bind to DBP more avidly than their isomeric counterparts. Such enhanced binding may in turn enhance the stability of 3-epi forms in the plasma, and thus may explain the prolonged presence of 3-epi metabolites in vivo.
Ligand binding assays are well known in the art. […] Such plots give linear curves characteristic for each test analog, the slopes of which are equal to the analog's competitive index (Wecksler, W. R. and Norman, A. W. (1980) Methods of Enzymol. 67:494-500).

human keratinocytes = assay: Metabolism in human keratinocytes (incubation, lipid extraction, HPLC); type: in vitro ADME
Description: Keratinocytes were prepared as described previously (Kim H. […] First passage keratinocytes were seeded at 0.5×10^6 into […] flasks in keratinocytes growth media (KGM, Clonetics, Inc.). The cells were fed every 2-3 days. The cells were 70-80% confluent usually after 5 days. […] At the end of 24 hr incubation period in a 37° C., 5% CO2 incubator, an equal volume of methanol was added to the cultures. The cells were then scraped from the flasks and all of the media and the cells were pooled and lipid extraction was performed from both cells and media using the Bligh and Dyer technique. […] Zorbax-SIL column eluted with 6% isopropanol in hexane at a flow rate of 2 ml/min. […] Resulting lipid extracts were analyzed using the following HPLC conditions: Zorbax-SIL column eluted with 9% isopropanol in hexane at a flow rate of 2 ml/min. […] Lipid extracts of different time points were analyzed by straight phase HPLC. […] This metabolite peak appeared at 1 hr. incubation period and increased to its maximum by 3 hr.

[3] = test system: intestinal calcium mobilization; conditions: cited from earlier work
MG-63 = conditions: relative to 1α,25(OH)2D3 = 100; cited from earlier work
[4] = target: T1, plasma vitamin D binding protein (DBP); conditions: relative competitive index; RCI of 1α,25(OH)2D3 is by definition 100; cited from earlier work
[5] = test system: bone calcium mobilization; conditions: relative to 1α,25(OH)2D3 = 100; cited from earlier work
[6] = test system: intestinal calcium transport; conditions: relative to 1α,25(OH)2D3 = 100; cited from earlier work
keratinocytes [7] = assay: Keratinocyte growth inhibition (cell number per well); type: cell-based, human; conditions: for inhibition of keratinocyte growth: result in words; for potency at inhibiting growth of keratinocytes compared with 1α,25(OH)2-3-epi-D3: data not shown
Description: To address the effect of 3-epi vitamin D3 compounds on keratinocyte growth, keratinocyte cultures were established at 25.000 cells/per well on day 0 in KGM. […] The cells were allowed to grow for 4 more days with one refeeding on day 3. Number of cells per well was determined on day 4.

[8] = test system: rat osteosarcoma cell line UMR 106
Description: (§1) In order to address whether vitamin D3 analogs can be converted to 3-epi forms, a number of analogs were tested in bone cells under identical experimental conditions as described in Example IX.

Caco-2 cells = assay: Metabolism of synthetic analogs in Caco-2 cells (HPLC); type: in vitro ADME, human; conditions: for metabolites detected in subconfluent cells: Caco-2, 6 days after seeding; for metabolites detected in subconfluent cells / metabolites detected in confluent cells: 1 μM, 48 hours; for metabolites detected in confluent cells: Caco-2, 14 days after seeding
Description: To address whether the epimerization of vitamin D3 analogs occurs in other tissues, the intestinal cell line Caco-2 was used as a model system to investigate the metabolism of two synthetic analogs of 1,25(OH)2D3 in intestinal epithelial cells. Subconfluent (6 days after seeding) and confluent (14 days after seeding) cells were incubated with 1 μM 1,25(OH)2-16-ene-D3 or 1,25(OH)2-16-ene-23-yne-D3, respectively, for 48 hours.

human leukemic cells = assay: Proliferation and differentiation of human leukemic cells; type: cell-based; conditions: data not shown
keratinocytes [9] = conditions: J. Invest. Dermatol. 101:713-718, 1993; cited from earlier work
[10] = test system: rat osteosarcoma cell line UMR 106; assay: Metabolism in rat osteosarcoma cell line UMR 106 (HPLC); conditions: UMR 106, 1α,25(OH)2D3, 24 and 48 hours
Description: as §1

[11] = test system: human osteosarcoma cell (U-2 OS); assay: Metabolism of 1α,25(OH)2D3 in human osteosarcoma cell (U-2 OS); type: in vitro ADME; conditions: 3×10^7 and 12×10^7 cells
Description: HPLC profiles were determined at two different cell densities, 3×10^7 cells and 12×10^7 as shown in the upper and lower panels of the Figure, respectively.

bovine parathyroid cells [12] = assay: Metabolism in bovine parathyroid cells (HPLC); type: in vitro ADME; conditions: 1 uM, 24 hours
Description: Bovine parathyroid glands obtained from a local slaughterhouse were digested with collagenase and the cells were cultured as previously described (Brown A. J. et al. (1992) Endocrinology 130:276-281), and seeded at a density of 80,000 cells/cm^2. Cells were grown to confluence in six days in serum free medium. […]. Incubations were terminated with methanol, and the samples were sent to our laboratory for HPLC analysis. The lipid extract was analyzed using the straight phase HPLC system (Zorbax-SIL column eluted with 6% isopropanol inhexane at 2 ml/min flow rate). […]

human placental explants = conditions: 1 uM 1α,25(OH)2D3
HACAT cells = assay: Metabolism of 1α,25(OH)2D3 in immortalized human keratinocytes (HACAT); type: in vitro ADME; conditions: 24 hr, 1uM 1α,25(OH)2D3
Source text: Primary cultures of human keratinocytes were used as a control (FIG. 12, panel A). The other three tissues tested included a cell line of immortalized human keratinocytes ([…] commonly studied cancer cell line (human promyelocytic leukemic cell line, HL-60) (FIG. 12, panel C), and perfused rat kidney (FIG. 12, Panel D). […] The experiments certainly establish the fact that the 3-epimerization is not ubiquitous, like the side chain oxidation pathways.

[13] = target: T2, vitamin D3 nuclear receptors (VD3R) (Rattus norvegicus, UniProt P13053); assay: Osteocalcin VDRE reporter gene transcription assay in transfected ROS-17/2.8 cells
T2 sequence (P13053 1-423): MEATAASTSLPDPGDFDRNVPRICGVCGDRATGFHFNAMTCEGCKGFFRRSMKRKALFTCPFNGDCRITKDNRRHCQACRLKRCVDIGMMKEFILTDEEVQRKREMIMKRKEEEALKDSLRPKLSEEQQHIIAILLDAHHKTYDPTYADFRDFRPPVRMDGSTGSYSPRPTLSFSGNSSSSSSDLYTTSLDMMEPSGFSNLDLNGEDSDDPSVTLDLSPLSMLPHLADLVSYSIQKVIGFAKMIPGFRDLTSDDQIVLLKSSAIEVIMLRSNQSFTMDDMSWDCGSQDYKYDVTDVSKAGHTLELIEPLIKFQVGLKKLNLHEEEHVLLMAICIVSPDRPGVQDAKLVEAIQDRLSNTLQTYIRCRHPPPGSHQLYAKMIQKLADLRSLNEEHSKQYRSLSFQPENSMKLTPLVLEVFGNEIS

C=C1C(=CC=C2CCCC3(C)C2CCC3C(C)CCCC(C)(C)O)CC(O)CC1O (stereo not drawn) [1α,25(OH)2-3-epi-D3, 3-epi-1α,25-dihydroxycholecalciferol]
inhibition of PTH secretion (bovine parathyroid cells [1]): significant biological activity
increase in the binding to plasma vitamin D binding protein (DBP) compared to 1α,25(OH)2D3 [2]: eightfold
incubation time at which the tritiated metabolite reaches its maximum (human keratinocytes): 3 h
metabolism into more polar metabolites (human keratinocytes): extensive metabolism
Transcaltachia ([3]; relative to 1α,25(OH)2D3): 80%
Transcaltachia ([3]; relative to 1α,25(OH)2D3 = 100): 80
Osteocalcin Synthesis MG-63 (MG-63): 17
Binding to DBP (RCI) [4]: 800
Bone Calcium Mobilization [5]: 1.5
Intestinal Calcium Transport [6]: 2.8
inhibition of keratinocyte growth (keratinocytes [7]): significant biological activity

C=C1/C(=C\C=C2/CCC[C@]3(C)C([C@@H](C)CCCC(C)(C)O)=CCC23)C[C@@H](O)C[C@@H]1O (stereo partly drawn) [1α,25(OH)2-16-ene-20-epi-D3]
conversion of vitamin D3 analog into less polar 3-epi metabolite [8]: 3-epi form

C=C1/C(=C\C=C2/CCC[C@]3(C)C([C@H](C)CC#CC(C)(C)O)=CC[C@@H]23)C[C@@H](O)C[C@@H]1O [1α,25(OH)2-16-ene-23-yne-D3]
conversion of vitamin D3 analog into less polar 3-epi metabolite [8]: 3-epi forms
metabolites detected in subconfluent cells (Caco-2 cells): no metabolites could be detected
metabolites detected in confluent cells (Caco-2 cells): 3-epi forms
rate of metabolism compared with 1,25(OH)2D3 or 1,25(OH)2-16-ene-D3 (Caco-2 cells; Caco-2, all growth conditions, data not shown): metabolized considerably slower

C=C1/C(=C\C=C2/CCC[C@]3(C)C([C@H](C)CCC(=O)C(C)(C)O)=CC[C@@H]23)C[C@@H](O)C[C@@H]1O [1α,25(OH)2-16-ene-24-oxo-D3]
accumulation of metabolite relative to remaining unmetabolized substrate (human keratinocytes; human): exceeded the amounts of remaining unmetabolized substrate
modulating proliferating and differentiation of human leukemic cells, compared with parent compound (human leukemic cells): equipotent effect as its parent compound
potency at inhibiting growth of keratinocytes compared with 1α,25(OH)2-3-epi-D3 (keratinocytes [7]): more potent than 1α,25(OH)2-3-epi-D3
inhibition of keratinocyte growth (keratinocytes [7]): equally potent

C=C1/C(=C\C=C2/CCC[C@]3(C)C([C@H](C)CCCC(C)(C)O)=CCC23)C[C@@H](O)C[C@@H]1O (stereo partly drawn) [1α,25(OH)2-16-ene-D3]
metabolites detected in subconfluent cells (Caco-2 cells): 1,24,25(OH)3-16-ene-D3 and 1,25 (OH)2-24-oxo-16-ene-D3
metabolites detected in confluent cells (Caco-2 cells): 3-epi form of 1,25(OH)2-16-ene-D3
inhibiting proliferation and inducing differentiation of keratinocytes (keratinocytes [9]): most potent of the analogs tested
potency at inhibiting growth of keratinocytes compared with 1α,25(OH)2-3-epi-D3 (keratinocytes [7]): more potent than 1α,25(OH)2-3-epi-D3
inhibition of keratinocyte growth (keratinocytes [7]): equally potent

C=C1C(=CC=C2CCCC3(C)C2CCC3C(C)CCCC(C)(C)O)CC(O)CC1O (stereo not drawn) [1α,25(OH)2-20-epi-D3]
conversion of vitamin D3 analog into less polar 3-epi metabolite [8]: 3-epi form

C=C1/C(=C\C=C2/CCC[C@@]3(C)C2CCC3C(C)CCCC(C)(C)O)CC(O)C[C@@H]1O (stereo partly drawn) [1α,25(OH)2D3]
formation of 1α,25(OH)2-3-epi-D3 [10]: dose dependent
incubation time at which the tritiated metabolite reaches its maximum (human keratinocytes; human keratinocytes from adult breast skin incubated with tritiated 25(OH)D3, physiological substrate concentration): 1 to 2 h
formation of 1α,25(OH)2-3-epi-D3 (peak M) (human keratinocytes; primary human keratinocytes, 24 hr, 1uM 1α,25(OH)2D3): is formed in keratinocytes and the HACAT cells
conversion into 3-epi form [11]: directly proportional to the concentration of cells
Transcaltachia ([3]; relative to 1α,25(OH)2D3 = 100): 100
conversion into 1α,25(OH)2-3-epi-D3 (bovine parathyroid cells [12]): have the ability to convert
epimerization of the 3-hydroxy group (human placental explants): unable to epimerize
Osteocalcin Synthesis MG-63 (MG-63): 100
Bone Calcium Mobilization [5]: 100
Intestinal Calcium Transport [6]: 100
formation of 1α,25(OH)2-3-epi-D3 (peak M) (HACAT cells): is formed in keratinocytes and the HACAT cells

C=C1C(=CC=C2CCCC3(C)C(C(C)CC#CC(C)(C)O)=CCC23)CC(O)CC1O (stereo not drawn) [3-epi-1,25-dihydroxy-16-ene-25-yne-cholecalciferol]
transcriptional activation in relation to isomeric counterpart [13]: slightly decreased
transcriptional activity compared with 1α,25(OH)2D3 [13]: as active as 1α,25(OH)2D3
induction of VD3R transcriptional activity ([13]; osteocalcin VDRE reporter): dose dependent manner
